One assay deals with Compound E. The assay can be described thus: Inhibition of contraction of guinea pig ileum induced by Compound E. It counts as cell-based. The conditions noted are these: Cavia porcellus.
A further assay concerns natural SRS-A. Description: Inhibition of contraction of guinea pig ileum induced by natural SRS-A. The conditions noted are these: Cavia porcellus; read-out: IC50 against natural SRS-A. The class given is cell-based. As for the experimental part: (§1) SRS-A was assayed utilizing the procedure described by Orange and Austen, J. Immunol. 10, 105 (1969) as follows: a 1.5 cm segment of ileum was removed from male guinea pigs weighing from 250 to 300 grams. The segment of ileum was suspended in a 10 ml organ bath containing Tyrodes solution. The ileum was attached to a strain gauge transducer and contractions were recorded on a strip chart recorder. The bath contained 10^-6 M atropine sulfate to block contractions which might be caused by acetylcholine and 10^-6 M pyrilamine maleate to block histamine-induced contractions. The bath was maintained at 37° C. and gassed with a mixture of 95% O2 and 5% CO2. The concentration of SRS-A in the filtrate obtained by challenging lung tissue with egg albumin was determined by comparing the contraction solicited by a given volume of the filtrate with the contraction elicited by […] of histamine (in the absence of pyrilamine maleate). One unit of SRS-A is equivalent to that quantity which will give the same contraction as this amount of histamine. […] After standardization, this SRS-A was stored in small aliquots at -80° C. for further use. […]
(§2) The assay was carried out as described in Example 23. […] The difference in the level of the contraction obtained in the absence and presence of varying concentrations of Compound I was determined. […]

In the next assay the test system is Compound B. Description: Inhibition of contraction of guinea pig ileum induced by Compound B. The class given is cell-based. The following applies: Compound B at its EC50, n=1, extrapolated from graph. As for the experimental part:
as §1, §2

The next assay deals with guinea pig ileum. Description: SRS-A activity: contraction of isolated guinea pig ileum (bioassay). The class given is cell-based. The conditions noted are these: read-out: EC50 (concentration giving 50% of the maximal contraction of the ileum produced by natural SRS-A), 37° C, atropine sulfate 10^-6 M and pyrilamine maleate 10^-6 M in bath, average ± S.E., n = 2-5 ileums. As for the experimental part:
SRS-A was assayed utilizing the procedure described by Orange and Austen, J. Immunol. […] The segment of ileum was suspended in a 10 ml organ bath containing Tyrodes solution. The ileum was attached to a strain gauge transducer and contractions were recorded on a strip chart recorder. The bath contained 10^-6 M atropine sulfate to block contractions which might be caused by acetylcholine and 10^-6 M pyrilamine maleate to block histamine-induced contractions. The bath was maintained at 37° C. and gassed with a mixture of 95% O2 and 5% CO2. The concentration of SRS-A in the filtrate obtained by challenging lung tissue with egg albumin was determined by comparing the contraction solicited by a given volume of the filtrate with the contraction elicited by […] of histamine (in the absence of pyrilamine maleate). One unit of SRS-A is equivalent to that quantity which will give the same contraction as this amount of histamine. […] After standardization, this SRS-A was stored in small aliquots at -80° C. for further use.

For assay [1] the following is noted: background, literature; cited from earlier work.

Counter-ions that a name gives are not always drawn. Like-named read-outs stand apart in the source and are kept apart here.

In the case of `CCCCCC#CCC#C/C=C/C=C/[C@H]1O[C@@H]1CCCC(=O)OC` (relative stereo) [(R,S) (All E)-3-(1,3-tetradecadien-5,8-diynyl)-trans-oxiranebutanoic acid methyl ester], the IC50 (usually the midpoint of a concentration-inhibition curve) in the assay on Compound E (Example 26, SRS-A active compound used: Compound E, n=1, read-out: IC50 (antagonist against synthetic Compound E)) was 10000 nM.

On to `CCCc1c(OCC(O)COc2ccc3c(=O)cc(C(=O)O)oc3c2CCC)ccc(C(C)=O)c1O` (centres unmarked) [Compound I, 7-[3-(4-acetyl-3-hydroxy-2-propylphenoxy)-2-hydroxypropoxy]-4-oxo-8-propyl-4H-benzopyran-2-carboxylic acid], for which the IC50 in the assay with natural SRS-A was 37 nM; with Compound B (Cavia porcellus, read-out: IC50 against Compound B, 3 min preincubation), 35 nM; with Compound B (read-out: IC50 against Compound B, 3 min preincubation), 40 nM; with Compound E (read-out: IC50 against Compound E), 40 nM.

For the molecule `CCCCCC#CCC#C/C=C/C=C/[C@@H](SC[C@H](N)C(=O)O)[C@@H](O)CCCC(=O)O` [D, (5S,6R) (E,E)-S-(5-hydroxy-1-hydroxy-1-oxoeicosa-7,9-dien-11,14-diyn-6-yl)-L-cysteine mono ammonium salt], in the assay with guinea pig ileum (Cavia porcellus), the EC50 was 1100 nM.

Take `CCCCCC=CCC=CC=CC=CC(SCC(N)C(=O)O)C(O)CCCC(=O)O` (centres unmarked) [compound obtained by Samuelsson]: in assay [1], the SRS-A activity result is on record as “found to have SRS-A activity”.

Consider “(5R,6S) (E,E,Z,Z)-S-(5-hydroxy-1-methoxy-1-oxoeicosa-7,9,11,14-tetraen-6-yl)-L-cysteine mono ammonium salt”, for which the EC50 in the assay with guinea pig ileum stood at 28 nM.

(Values after patent US4311645A, “Synthesis of SRS-active compounds” (Hoffmann-La Roche Inc., priority 1980, dated 1982).)
